Source: patent US20110268818A1, “NGAL-BINDING SIDEROPHORES AND USE THEREOF TO TREAT IRON DEFICIENCY AND IRON OVERLOAD” (priority 2008, published 2011)
Where a name gives a salt, the structure may show the parent alone.

Assays:
[1] = Siderophore:iron binding assay (paper chromatography); settings: for Fe: Chromatography: 55Fe mobilised by compound on paper chromatogram developed in water, Yes/No
Source text: Siderophore:Iron Binding Assay. To test whether candidates bound iron directly, candidates (1 nmole) were mixed with ^55Fe (1 pmole), and then separated bound from free ^55Fe using paper chromatography developed in water.
Paper chromatography: The Fe-Siderophore Binding Assay: The concept underlying the Ngal-siderophore-Fe binding assay is that the urinary molecule provides an iron binding siderophore, and that the Ngal protein provides the carrier which retains the siderophore:Fe on the 10 KDa filter. […] To directly test this idea, we will mix 55Fe with HMDB compounds and then separate bound from free 55Fe by using paper chromatography. […] The assay also provides an independent means to follow the purification of the urinary siderophore. Using this assay, we can measure the specific activity of the fractions to identify the peak activity, as well as to compare the urinary fraction with enterochelin to establish relative units of activity.

NGAL = target: T1, NGAL (Homo sapiens, UniProt P80188); test: NGAL:siderophore:iron binding assay (retention on 10 kDa filter); settings: for NGAL-siderophore-Fe binding activity (in words): iron retention by NGAL on filter
T1 construct: made in house; host or cells: E. coli BL-21
T1 sequence (P80188 21-198): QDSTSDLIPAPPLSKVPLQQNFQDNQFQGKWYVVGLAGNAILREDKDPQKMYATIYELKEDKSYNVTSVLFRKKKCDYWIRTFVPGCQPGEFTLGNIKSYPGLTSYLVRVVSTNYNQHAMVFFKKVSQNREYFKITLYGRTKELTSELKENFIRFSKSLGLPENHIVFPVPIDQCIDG
Experimental: NGAL:Siderophore:Iron Binding Assays. […] After 60 minutes, the mixture was washed 3 times (YM-10) or alternatively gel filtered (PD-10, GE Biosciences). Ent loaded NGAL served as a positive control. Ferric citrate (1 mM) or Ent:iron (500 μM) served as competitors of ^55Fe binding.
After 60 minutes at room temperature, the mixture was then washed 3 times on a 10-kDa membrane (Amicon YM-10; Millipore Corp.). Ngal loaded with iron-free enterochelin (rather than apo-Ngal) served as a positive control for iron capture. Ferric citrate (1 mM) or iron-loaded enterochelin (siderophore:Fe, […]) was used as a competitor of 55Fe binding.

[2] = apoNGAL 10 μM, 55Fe, compound 10 μM, pH 7.4, washed on 10 kDa filter

| Compound | Fe: Chromatography [1] | NGAL: Chelator: Fe % Retention (NGAL; [2]) | iron chelating activity by paper chromatography (in words) [1] | NGAL-siderophore-Fe binding activity (in words) (NGAL) | NGAL: Chelator: Fe % Retention (NGAL; pH 7.4) |
| --- | --- | --- | --- | --- | --- |
| COc1cc(/C=C/C(=O)O)ccc1O [Ferulic acid] | No | 3% | – | – | – |
| NCC(=O)CCC(=O)O [5-Aminolevulinic acid] | No | 3% | – | – | – |
| NCCc1cc(O)c(O)cc1O [6-Hydroxydopamine] | No | 4% | – | – | – |
| O=C(O[C@@H]1Cc2c(O)cc(O)cc2O[C@@H]1c1cc(O)c(O)c(O)c1)c1cc(O)c(O)c(O)c1 [(−) Epigallocatechin gallate] | Yes | 45% | active | active | – |
| N[C@@H](Cc1ccccc1)C(=O)O [L-Phenylalanine] | No | 8% | – | – | – |
| C=CC1=C(C)c2cc3[nH]c(cc4nc(cc5[nH]c(cc1n2)c(C)c5CCC(=O)O)C(CCC(=O)O)=C4C)c(C)c3C=C [Protoporphyrin IX] | – | 3% | – | – | – |
| NC(=O)NC1NC(=O)NC1=O (stereo not drawn) [Allantoin] | No | 7% | – | – | – |
| O=C(O)/C=C/c1ccc(O)c(O)c1 [Caffeic acid] | No | 7% | – | – | – |
| COc1cccc(C(=O)O)c1OC [2,3 Dimethoxybenzoic acid] | No | 6% | – | – | – |
| NC(=O)c1ccc[n+]([C@@H]2O[C@H](COP(=O)(O)OP(=O)(O)OC[C@H]3O[C@@H](n4cnc5c(N)ncnc54)[C@H](O)[C@@H]3O)[C@@H](O)[C@H]2O)c1 [NAD] | No | 12% | – | – | – |
| O=C(O)CC(C(=O)O)C(O)C(=O)O (racemic) [Isocitric acid] | Yes | – | – | – | – |
| NC(=O)C1=CN([C@@H]2O[C@H](COP(=O)(O)OP(=O)(O)OC[C@H]3O[C@@H](n4cnc5c(N)ncnc54)[C@H](OP(=O)(O)O)[C@@H]3O)[C@@H](O)[C@H]2O)C=CC1 [NADPH] | Yes | 3% | – | – | – |
| O=C(/C=C/c1ccc(O)c(O)c1)O[C@@H]1C[C@](O)(C(=O)O)C[C@@H](O)[C@H]1O [Chlorogenic acid] | – | 6% | – | – | – |
| NCc1[nH]cc(CCC(=O)O)c1CC(=O)O [Porphobilinogen] | No | 3% | – | – | – |
| Maleic acid | No | 4% | – | – | – |
| O=C(O)c1cccc(O)c1O [2,3- Dihydroxybenzoic acid] | Yes | 35% | active | active | – |
| Nc1nc2[nH]cc(CNc3ccc(C(=O)N[C@@H](CCC(=O)O)C(=O)O)cc3)nc-2c(=O)n1 [Folic acid] | No | 3% | – | – | – |
| N[C@@H](Cc1c[nH]c2ccccc12)C(=O)O [L-Tryptophan] | No | 5% | – | – | – |
| O=C(O)c1cc(=O)[nH]c(=O)[nH]1 [Orotic acid] | No | 13% | – | – | – |
| CCC1C(=O)NC(CC2=N/C(=C\c3[nH]c(CC4NC(=O)C(C)C4CC)c(C)c3CCC(=O)O)C(CCC(=O)O)=C2C)C1C (stereo not drawn) [Urobilin HCl] | No | 3% | – | – | – |
| O=C(O)/C=C(/CC(=O)O)C(=O)O [Cis-Aconitic acid] | No | 11% | – | – | – |
| NCC(=O)c1ccc(O)c(O)c1 (racemic) [DL- Norepinephrine•HCl] | No | 5% | – | – | – |
| COc1ccccc1O [Guaiacol] | No | 4% | – | – | – |

| Compound | Fe: Chromatography [1] | NGAL: Chelator: Fe % Retention (NGAL; [2]) | iron chelating activity by paper chromatography (in words) [1] | NGAL-siderophore-Fe binding activity (in words) (NGAL) | NGAL: Chelator: Fe % Retention (NGAL; pH 7.4) |
| --- | --- | --- | --- | --- | --- |
| O=C(O)Cc1c[nH]c2ccc(O)cc12 [5-Hydroxy-indoleacetic acid] | – | 7% | – | – | – |
| Nc1c(O)cccc1C(=O)O [3- Hydroxyanthranilic acid] | No | 10% | – | – | – |
| COc1ccccc1OC [1,2-Dimethoxybenzene] | No | 3% | – | – | – |
| CC(=O)NC(CC(=O)O)c1ccccc1 (racemic) [N-Acetyl-DL-Â- phenylalanine] | No | 5% | – | – | – |
| O=C(O)c1cc(O)ccc1O [Gentistic Acid] | No | 6% | – | – | – |
| O=C(O)c1ccccc1O [Salicylic acid] | No | 15% | – | – | – |
| N[C@@H](Cc1c[nH]c2ccc(O)cc12)C(=O)O [5-Hydroxytryptophan] | No | 4% | – | – | – |
| O=C(/C=C/c1ccc(O)c(O)c1)OCCc1ccccc1 [Caffeic acid phenethyl ester] | No | 8% | – | – | – |
| Nc1c(O)cccc1C(=O)CC(N)C(=O)O (racemic) [3-Hydroxy-DL-kynurenine] | Yes | 3% | active | – | – |
| β-Nicotinamide adenine | – | – | active | – | – |
| O=c1c(O)c(-c2cc(O)c(O)c(O)c2)oc2cc(O)cc(O)c12 [Myricetin] | No | 28% | – | active | – |
| C=CC1=C(C)C(/C=c2/[nH]/c(=C\c3[nH]c(/C=C4\NC(=O)C(C)=C4C=C)c(C)c3CCC(=O)O)c(CCC(=O)O)c2C)NC1=O (stereo not drawn) [Biliverdin HCl] | No | 9% | – | – | – |
| NCCc1cc(O)c(O)c(O)c1 [5-Hydroxydopamine] | No | 10% | – | – | – |
| O=C(O)Cc1cc(O)ccc1O [Homogentisic acid] | No | 7% | – | – | – |
| Cc1ncc(CO)c(C(=O)O)c1O [4-Pyridoxic Acid] | No | 12% | – | – | – |
| O=C(O)c1ccc(O)c(O)c1 [3,4- Dihydroxybenzoic Acid] | Yes | 5% | active | – | – |
| Cc1cc2nc3c(=O)[nH]c(=O)nc-3n(C[C@H](O)[C@H](O)[C@H](O)COP(=O)(O)OP(=O)(O)OC[C@H]3O[C@@H](n4cnc5c(N)ncnc54)[C@H](O)[C@@H]3O)c2cc1C [FAD] | – | 6% | – | – | – |
| O=C(/C=C/c1ccc(O)c(O)c1)O[C@H](Cc1ccc(O)c(O)c1)C(=O)O [Rosmarinic acid] | Yes | 50% | active | active | – |
| NC(=O)c1ccc[n+]([C@@H]2O[C@H](COP(=O)(O)OP(=O)(O)OC[C@H]3O[C@@H](n4cnc5c(N)ncnc54)[C@H](OP(=O)(O)O)[C@@H]3O)[C@@H](O)[C@H]2O)c1 [NADP] | Yes | 7% | active | – | – |
| NC(Cc1ccc(O)c(O)c1)C(=O)O (racemic) [3,4-Dihydroxy-DL-phenylalanine] | Yes | 12% | active | – | – |
| O=C(O)CCC(=O)O [Succinic acid] | – | – | – | – | 11% |
| O=c1cc[nH]c(=O)[nH]1 [Uracil] | – | 7% | – | – | – |
